Where two headings read alike, the source gives them in different places.
Columns and labels:
[1] = Femtosecond broadband transient absorption spectroscopy of the thiothymine series (intersystem crossing, triplet yield); type: physicochemical
Description: Femtosecond transient absorption spectroscopy was performed using a Ti— Sapphire regenerative amplifier laser system (Libra-HE, Coherent, Inc.; 800 nm, 100 fs, 4.0 W at 1 kHz). 2.6 W of the 800 nm beam were used to pump an optical parametric amplifier (TOPAS, Quantronix/Light Conversion) to generate the excitation beam at selected wavelengths of 320, 335, and 360 nm. Contributions to the excitation beam from other wavelengths and polarizations were removed by a reflective wavelength filter (λ-filter) and a Glan-Taylor polarizer, respectively, and the polarization was randomized using a depolarizing plate in order to prevent rotational effects from contributing to the dynamics, as described in details elsewhere.
A Helios spectrometer (Ultrafast Systems, LLC.) was used for pump-probe measurements. A fraction of the fundamental (800 nm) beam from the Libra-HE was used to generate white light continuum (WLC). The Helios spectrometer uses an optical delay line with a maximum delay of ˜3 ns for the 800 nm beam, which was used to pump a continuously-moving 2 mm CaF2 plate for generation of the WLC broadband probe pulse covering the spectral range from ˜320-700 nm. The probe light was then passed through a 730 nm low-pass dichroic optical filter, so as to block residual fundamental beam and to avoid saturating the complementary metal-oxide-semiconductor (CMOS) detectors. The probe pulse was then split into two beams, both of which were recollimated and focused into the optical fibers leading to their respective CMOS detectors. In this setup, one of the beams serves as reference, while the other is used to probe the sample of interest. A synchronized chopper wheel was used to block every other pump pulse, such that the difference in absorption between two consecutive measurements gives the transient spectrum. The excitation beam was attenuated to 1 μJ/pulse at the sample using a neutral density optical filter before entering the spectrometer. The excitation pulse was focused to a beam diameter three times larger than that of the probe beam at the sample position. Detection time windows of 20 and 200 ps were used in this work.
All solutions were prepared using pH 7.4 aqueous phosphate buffer, with a total phosphate concentration of 16 mM. The solution was continuously stirred in a 2 mm optical path length quartz cell (Starna Cells, Inc.) using a Teflon-coated magnetic stirring bar so as to bring fresh sample to the pump-probe region for each measurement. The solution in the cuvette was replaced with a fresh sample, from the same stock solution, every 5-7 scans, so that all scans had no more than 5% decrease in absorbance at the lowest-energy absorption-band maximum as determined by steady-state absorption spectroscopy.
All broadband transient absorption data were corrected for group velocity dispersion (GVD) of the WLC using a home-made LabView program (National Instruments, Inc.) as previously described. 3 Analysis of transient absorption kinetics was performed in Igor Pro 6.32A (WaveMetrics, Inc.) using the target analysis method, as described previously, and a sequential kinetic model convoluted with an instrument response function of ˜200 fs (FWHM). The instrument response was determined from the coherence signal of neat methanol generated at the sample cell. Global fitting analysis was performed using 15 to 30 representative kinetic traces covering the full range of probe wavelengths. At least three independent datasets (i.e., recorded on three different days) were used in the analysis and all uncertainties are reported as twice the standard deviation of the average lifetime. Decay associated spectra shown in FIG. 7A were extracted from the global fitting analysis of the transient decay traces taken every third probe wavelength across the entire WLC range.

[2] = pH 7.4 phosphate buffer solution, cited from earlier work; for ΦT triplet quantum yield: previously reported values
[3] = O2-saturated acetonitrile solution; previously measured / standard value; cited from earlier work
[4] = cited from earlier work
[5] = Femtosecond to microsecond transient absorption spectroscopy of the thiouracil series (intersystem crossing, triplet yield, triplet decay, triplet-triplet extinction)
Description: Briefly, 800 nm, 100 fs fundamental pulses were generated with a Ti-Sapphire regenerative amplifier laser system (Libra-HE, Coherent, Inc.: 4.0 W, 1 kHz). The fundamental beam was used to produce pump wavelengths of 320, 335, and 350 nm via an optical parametric amplifier (TOPAS, Quantronix/Light Conversion). Unwanted wavelengths were removed from the pump beam using a reflective wavelength filter and a Glan-Taylor polarizer. A fraction of the remaining fundamental beam was focused into a continuously moving CaF2 plate (2 mm thick) to generate broadband white light probe pulses (320-700 nm). The intensity of the excitation beam was attenuated to 1 mJ per pulse at the sample position. The polarization of the pump beam was randomized before being focused into the sample to overlap with the white light continuum probe at a 3:1 beam diameter ratio. Pump-probe experiments were collected using a Helios spectrometer (Ultrafast Systems, LLC) and a home-made data acquisition software (LabView, National Instruments, Inc.).
Solutions of the 2tUra, 4tUra, and 2,4dtUra derivatives were prepared in aqueous phosphate-buffered saline at pH 7.4. […] Solutions were investigated in 2 mm optical path length quartz cells and the irradiated volume was continuously refreshed by stirring with a Teflon-coated magnetic stir bar. Contributions to the transient data from any putative photoproduct formation were prevented by replacing the solution with fresh stock solution every 5 scans, or before 6% sample degradation (as monitored by a decrease in the steady-state absorbance of the lowest-energy absorption band). The UVA excitation wavelength used was varied depending on the absorption spectrum of the specific thiouracil derivative investigated. For 2tUra, an excitation wavelength of 320 nm was used, whereas 2,4dtUra was excited at 335 and 350 nm, and 4tUra was excited at all three of these UVA wavelengths.
Decay of the triplet state of 4tUra and 2,4dtUra to the ground state was monitored using the same excitation and detection setups but probing with an electronically triggered broadband white light source (Eos, Ultrafast Systems, LLC) that has been conveniently integrated into the Helios spectrometer. This probe source has a spectral window from B375 to 800 nm, a time resolution of about 400 ps, and a temporal window of up to 120 ms. […] Data were collected with the solutions under a constant nitrogen flow, and exciting at 350 nm with 3 mJ per pulse for 10 min, corresponding to less than 5% degradation.
For each data set, between 50 and 100 traces were selected across the entire range of probe wavelengths and globally analyzed in Igor Pro 6.32A (WaveMetrics, Inc.). […] 83 The uncertainties reported for the triplet population lifetimes are twice the standard deviation from the average fitting of at least three independent datasets (i.e., recorded on three different days). Triplet-triplet absorption spectra were extracted from the global fitting analysis.

[6] = Singlet oxygen quantum yield by phosphorescence at 1270 nm, thiouracil series; type: physicochemical
Description: Solutions of 4tUra, 2,4dtUra, and the singlet oxygen standard (phenalenone; ΦΔ=0.98) were prepared in acetonitrile, each with an absorbance of 0.3 at 355 nm in a 1×1 cm quartz cuvette. The solutions were purged with oxygen for 30 min, followed by the determination of quantum yields from back-toback measurements of the singlet oxygen phosphorescence intensity at 1270 nm. The O2-saturated solutions were excited at 355 nm (Spectra Physics GCR-150-30: 7 ns pulse width) and the phosphorescence at 1270 nm was detected with a NIR sensitive photomultiplier tube (H10330A-45, Hamamatsu).
The singlet oxygen (^1O2) quantum yields of 4tUra and 2,4dtUra were measured by monitoring the characteristic phosphorescence of ^1O2 at 1270 nm with nanosecond time resolution.

[7] = system: adenosine 5′-monophosphate (5′-AMP); experiment: Photoreactivity with adenosine 5′-monophosphate upon 365 nm irradiation in N2-saturated buffer; settings: with 5′-AMP, 1:5 molar ratio (24 and 120 mM); 365 nm irradiation; N2-saturated aqueous buffer pH 7.4
Description: Aqueous phosphate-buffered saline solutions, pH 7.4, containing either 4tUra or 2,4dtUra were prepared with and without 5′-AMP and loaded into 1×1 cm septum-top quartz cuvettes. The concentrations of the thiouracil derivatives and 5′-AMP were […], respectively. These concentrations were chosen in order to favor the bimolecular photoreaction between the thiouracil derivative and 50-AMP, while simultaneously maintaining the absorbance of the solutions within the linear dynamic range limit of the UV-visible spectrophotometer used. All solutions were purged with ultrapure nitrogen for 30 min and kept under constant nitrogen flow throughout the irradiation period. An optical parametric amplifier (TOPAS, Quantronix/Light Conversion) pumped by our Libra laser system (described above) was used for monochromatic (±1 nm) irradiation of the samples. […] Absorbance changes in the thiouracil solutions, with and without 5′-AMP, were monitored periodically using UV-visible spectroscopy (Cary 100 Bio) during irradiation at 365 nm for up to 90 min and while stored in the dark for up to three and a half days.
In order to scrutinize the light-induced reactivity of these sensitizers toward biomolecules, aqueous phosphate-buffered saline solutions of either 4tUra or 2,4dtUra were prepared in the presence of the RNA monomer adenosine 5′-monophosphate (5′-AMP) at a 1:5 molar ratio. […] The experimental conditions were chosen in order to facilitate the extraction of relative photoreaction rates from the changes in the steady-state absorption spectra with irradiation time. […]

[8] = Steady-state absorption spectroscopy, thymine series; type: physicochemical; settings: phosphate buffer solution at pH 7.4
Excerpt: 2-thiothymine (2tThy, 98% purity) was obtained from AK Scientific, 4-thiothymidine (4tThd, 99% purity) was obtained from Carbosynth Ltd., and 2-thiothymidine (2tThd) and 2,4-dithiothymine (2,4dtThy) were obtained from Sigma Aldrich. All compounds were used as received. The purity of these compounds was ensured by using fluorescence spectroscopy and by comparison with the published absorption maxima and their corresponding extinction coefficients. Phosphate buffer solutions were freshly prepared using 0.12 g of sodium dihydrogen phosphate and 0.089 g of disodium hydrogen phosphate dissolved in 100 mL of ultrapure water and adjusted to pH 7.4 using a 2 M NaOH solution. Steady-state absorption spectra were measured using a Cary 100 Bio spectrometer. All absorption spectra were corrected for the solvent background by subtraction of the absorption of the solvent.
Specifically, sulfur substitution of the C2 carbonyl in thymine results in about a 10 nm redshift in the absorption maximum, whereas substitution at the C4 position results in a redshift of about 70 nm. Remarkably, double-substitution results in about a 100 nm redshift of the lowest-energy absorption band of thymidine (ΔE=9905 cm^−1), without an appreciable change in the magnitude of the extinction coefficient at the corresponding wavelengths (1×10^4 M^−1 cm^−1). Replacement of an oxygen atom by a sulfur atom in a carbonyl bond is expected to shift the absorption spectrum to the red because the thiocarbonyl is weaker than the carbonyl bond and the excited electronic states in thiocarbonyl compounds are typically found at lower energies. However, the difference in bond strengths between a carbonyl and thiocarbonyl bond cannot solely explain the large spectral shift observed between 2tThy/2tThd and 4tThd. Furthermore, the redshift in the absorption spectrum of 2,4dtThy cannot simply be expressed as a linear combination of the absorption spectra of the 2tThy/2tThd and 4tThd derivatives. […] Glycosylation of 2tThy, generating 2tThd, results in a 2 nm redshift in the absorption maximum and about 2-fold increase in the molar absorptivity coefficients (FIG. 1B). The same effect has been previously documented in the natural bases and in other thiobases. Therefore, glycosylation of 2,4dtThy to form 2,4-dithiothymidine is expected to redshift the absorption spectrum slightly and to increase the molar absorptivity coefficients.

[9] = aqueous phosphate-buffered saline solution, pH 7.4

Q: What does the source list for `Cc1cn([C@H]2C[C@H](O)[C@@H](CO)O2)c(=S)[nH]c1=O` [2tThd, 2-thiothymidine]?
A: τISC intersystem crossing lifetime ([1]; pH 7.4 phosphate buffer solution, probe 600 nm): 410 ± 60 fs; ΦT triplet quantum yield [2]: 0.9 ± 0.1

Q: For `Cc1c[nH]c(=S)[nH]c1=O` [2tThy, 2-thiothymine], which “intersystem crossing rate increase relative to Thd” value [1] is on record?
A: The value was 1.2 fold.

Q: What about the “ΦΔ singlet oxygen quantum yield” value [3] of the same compound?
A: Its value is 0.36 ± 0.02.

Q: And the “ΦT triplet quantum yield” value [2]?
A: The value was 0.9 ± 0.1.

Q: For `O=c1cc[nH]c(=S)[nH]1` [2tUra, 2-thiouracil], which pKa [4] is on record?
A: The pKa was 7.74.

Q: And the “τISC intersystem crossing lifetime” value [5, 9]?
A: The value was 360 ± 30 fs.

Q: Which results are given for `O=c1[nH]ccc(=S)[nH]1` [4tUra, 4-thiouracil]?
A: ΦΔ singlet oxygen quantum yield ([6]; O2-saturated acetonitrile, 355 nm excitation, phenalenone standard): 0.49±0.02; 1O2 yield relative to uracil ([6]; excited to lowest-energy absorption band): 3.3 fold; 1O2 yield ([6]; following UVA excitation): ca. 50%; photoreaction rate [7]: (0.39±0.04)×10^−9 M s^−1; pKa [4]: 8.0; τISC intersystem crossing lifetime [5, 9]: 240 ± 20 fs; κT triplet-state decay rate ([5]; aqueous phosphate-buffered saline solution, pH 7.4, 24 mM solutions, nitrogen-purged, 350 nm excitation): 1.7 ± 0.3 10^6 s^−1; triplet-triplet extinction coefficient ([5]; at 600 nm, singlet depletion method): 3000 ± 600 M⁻¹ cm⁻¹

Q: Which “maximum of lowest-energy absorption band” value [8] does the source give for `Cc1cn([C@H]2C[C@H](O)[C@@H](CO)O2)c(=O)[nH]c1=O` [Thd, thymidine] here?
A: The value was about 267 nm.

Q: What about the “ε at maximum of lowest-energy absorption band” value [8] of the same compound?
A: Its value is “≈ 9.9×10^3 M^−1 cm^−1”.

Q: And the “ΦΔ singlet oxygen quantum yield” value [3]?
A: The value was 0.07 ± 0.01.

Q: What about the “ΦT triplet quantum yield” value [2] of the same compound?
A: Its value is 0.014 ± 0.001.

Q: What about the “τISC intersystem crossing lifetime” value ([2]; recently reported value for thymidine) of the same compound?
A: The value was 760 fs.

— patent US10864273B2, “Thiobase compounds for photodynamic therapy” (CASE WESTERN RESERVE UNIVERSITY, priority 2015, dated 2020)
